How the values were obtained:
[1] = A. J. GOWER et al., Eur. J. Pharmacol., 222, (1992), 193-203; cited from earlier work
[2] = BCS classification; type: physicochemical
Protocol: Considering Levetiracetam, Brivaracetam and Seletracetam are classified as BCS I, in order to achieve a prolonged therapeutic plasmatic drug level the resulting in vitro dissolution (USP<711> apparatus n°2) in a buffered aqueous media has to show a drug release of no more than 40% after 1 hour of dissolution, of 25% -80% after 4 hours of dissolution and of no less than 80% after 16 hours of dissolution. Preferably, a profile of no more than 35% after 1 hour of dissolution, of 35% -75% after 4 hours of dissolution and of no less than 80% after 16 hours of dissolution. More preferably a profile of no more than 30% after 1 hour of dissolution, of 45% -70% after 4 hours of dissolution and of no less than 80% after 16 hours of dissolution.

[3] = system: adult patients with refractory partial onset seizures; assay: clinical studies, adjunctive treatment of partial onset seizures (epilepsy); type: in vivo, human
Protocol: (§1) Brivaracetam is effective in the treatment of epilepsy. A clinical trial evaluated the efficacy and safety of Brivaracetam (5, 20 and 50 mg per day) in the adjunctive treatment of adult patients with refractory partial onset seizures, with or without secondary generalization. Brivaracetam is also effective in the treatment of patients with post-herpetic neuralgia.
Seletracetam is effective in the treatment of epilepsy. Two studies were conducted with Seletracetam in epilepsy evaluating the efficacy and safety of Seletracetam in the adjunctive treatment of partial onset seizures in highly refractory adult patients currently receiving up to three concomitant anti-epileptic drugs.

[4] = system: patients with post-herpetic neuralgia; assay: treatment of patients with post-herpetic neuralgia; type: in vivo, human
Protocol: as §1

[5] = system: rat hippocampal slices; assay: epileptiform responses in hippocampal slices induced by high-K+/low-Ca2+ fluid (HKLCF); type: cell-based, Sprague-Dawley rats; design: rate of spontaneous field bursting: dose or concentration left out as unconfirmed; settings: for evoked epileptiform responses (PS1 amplitude, repetitive PSs) in CA3 area: HKLCF perfusion, fimbrial stimulation
Protocol: The effect of brivaracetam on epileptiform responses induced by high-K+/low-Ca2+ concentrations or by bicuculline was examined in transverse hippocampal slices prepared from Sprague-Dawley rats according to previously reported standard procedures. The epileptiform responses were induced by passing from a normal perfusion of artificial cerebrospinal fluid (ACSF) (K+3 mM; Ca2+2.4 mM) to either high-K+/low-Ca2+ fluid (HKLCF) (K+7.5 mM; Ca2+0.5 mM) or to […] bicuculline methiodide (BMI)-containing ACSF.
Extracellular field potentials (FPs) were recorded in the CA3 area of the slices with 2 M NaCl-filled glass microelectrodes. The evoked FPs were recorded at 10-min intervals in response to fimbrial stimulation with constant current rectangular pulses that elicit a single population spike (PS) of 50-75% of the maximal amplitude when the slice is in ACSF. In the HKLCF model, 2 min of spontaneous activity were also recorded, in the middle of each 10-min interval between the recordings of evoked responses.
Either brivaracetam or levetiracetam was added to the bathing fluid of the slices 20 min before shifting from ACSF to either HKLCF or […] BMI-containing ACSF, and was kept in the perfusion fluid throughout the experiment.

[6] = system: amygdala-kindled rats; assay: fully amygdala-kindled rats; type: in vivo, rat; settings: for dose significantly reducing the after-discharge duration: brivaracetam at highest dose tested, levetiracetam inactive up to stated dose
[7] = system: genetically sound-sensitive male mice; assay: audiogenic seizures in mice; type: in vivo; settings: audiogenic seizure-susceptible mice; i.p.
Protocol: Audiogenic seizures in mice: Genetically sound-sensitive male mice (16-28 g; n=10 per group), responding with wild running, clonic and tonic convulsions to an acoustic stimulation, were used. Audiogenic seizures were induced by an acoustic stimulus (90 dB, 10-20 kHz) applied for 30 s. The mice were pretreated with either saline, brivaracetam (i.p., 30 min) or levetiracetam (i.p., 60 min), and the proportion of mice protected against clonic convulsions was used as the end point to assess anticonvulsant activity.

[8] = system: mice; assay: chemically induced seizures in mice (pentylenetetrazol); type: in vivo; settings: i.p. 30 min before seizure induction; higher ED50 values than audiogenic
Protocol: The dose was selected based on dose-effect curves in saline-treated animals as the convulsive dose inducing clonic convulsions of all four extremities in 97% of the animals. Immediately after administration of the chemoconvulsant, the mice were placed individually in small plastic cages (25 13 8 cm) and observed for the presence of clonic convulsions in all four extremities, for 60 min. The occurrence of tonic convulsions (hindlimb extension) and mortality was also recorded during this interval. The proportion of mice protected against clonic convulsions was calculated and used as the end point for anticonvulsant activity.

[9] = system: mice; assay: maximal electroshock in mice; type: in vivo; settings: i.p. 30 min before seizure induction; higher ED50 values than audiogenic
[10] = system: GAERS rats; assay: spontaneous SWDs in GAERS rats; type: in vivo, rat
[11] = system: mice; assay: corneal kindling of mice; type: in vivo
[12] = water solubility; type: physicochemical
[13] = system: rat hippocampal slices; settings: introductory statement; cited from earlier work
[14] = system: rat hippocampal slices; settings: introductory statement; cited from earlier work; remark: listed apart in the source

Row | SMILES | activity in the treatment of epilepsy [1] | BCS class [2] | efficacy in the treatment of epilepsy [3] | efficacy in post-herpetic neuralgia [4] | rate of spontaneous field bursting ([5]; HKLCF) | evoked epileptiform responses (PS1 amplitude, repetitive PSs) in CA3 area [5] | dose from which significant suppression in motor-seizure severity is induced [6] [mg/kg] | dose significantly reducing the after-discharge duration [6] [mg/kg] | protection against clonic convulsions [7] | protection against clonic convulsions induced by pentylenetetrazol [8] | protection against tonic hindlimb extension induced by a maximal electroshock [9] | dose from which spontaneous SWDs are significantly suppressed [10] [mg/kg] | inhibition of spontaneous SWDs ([10]; highest dose tested (67.9 mg kg−1)) | incidence of generalized motor seizures after termination of treatment ([11]; continued corneal stimulations, group previously treated with the highest dose) | incidence of generalized motor seizures ([11]; pretreatment during corneal kindling, levetiracetam at higher doses) | solubility [12] [mg/mL] | epileptiform responses induced by high-K+/low-Ca2+ concentrations [13] | epileptiform responses induced by bicuculline [14]
1 | CC[C@H](C(N)=O)N1CCCC1=O [(R)-(+)-α-ethyl-2-oxo-1-pyrrolidine-acetamide] | completely devoid of activity | – | – | – | – | – | – | – | – | – | – | – | – | – | – | – | – | –
2 | CCC[C@@H]1CC(=O)N([C@@H](CC)C(N)=O)C1 [Brivaracetam, (2S)-2-[(4R)-2-oxo-4-propyl-pyrrolidin-1-yl] butanamide] | – | BCS I | effective | effective | reduced the rate | reduced these epileptiform responses | 21.2 | 212.3 | protected | protected | protected | 2.1 | complete inhibition | persistent reduction | significant reduction | – | – | –
3 | CC[C@@H](C(N)=O)N1CCCC1=O [Levetiracetam, (S)-(−)α-ethyl-2-oxo-1-pyrrolidineacetamide] | – | BCS I | – | – | – | reduced these epileptiform responses | 170 | > 1700 | protected | – | – | 5.4 | – | – | – | > 500 | reduces epileptiform responses | reduces epileptiform responses
4 | CC[C@@H](C(N)=O)N1C[C@H](C=C(F)F)CC1=O [Seletracetam, (2S)-2-[(4S)-4-(2,2-difluorovinyl)-2-oxo-pyrrolidin-1-yl]butanamide] | – | BCS I | effective | – | – | – | – | – | – | – | – | – | – | – | – | – | – | –

Source: US10172805B2, “Prolonged release formulations comprising an 2-oxo-1-pyrrolidine derivative” (UCB BIOPHARMA SPRL, priority 2008, dated 2019)
